According to patent publication US20060280725A1, “Compositions and methods of treating and diagnosing hepatoma” (priority 2003, published 2006):

Columns and labels:
THLE-5B = test: Glutamine transport assay (inhibition and kinetic analysis); assay type: cell-based, human; conditions: 5 mM, 50 μM L-glutamine, p<0.050
Procedure: (§1) FIG. 1. Amino acid inhibition analysis of glutamine transport in the Hep3B, PLC/PRF/5 and Focus human hepatoma cell lines and the THLE-5B SV40-immortalized human liver epithelial cell line. The Na^+-dependent transport of 50 μM L-glutamine was measured as described in the Methods section in the absence or presence of the indicated unlabeled amino acids at 5 mM. Testing of cysteine (CYSH) required the presence of 5 mM dithiothreitol (DTT) as a reducing agent, so DTT was tested alone as well. Arrows indicate the relative transport rates for 50 μM L-glutamine in primary human adult (solid arrow) and fetal (open arrow) hepatocytes. The results represent the average±SD of four separate determinations (*p<0.010 versus control). The Eadie-Hofstee plots of the kinetic analyses are shown as an inset in each figure, with the dashed lines representing the resolved high and low affinity components of the composite data (solid line). The derived values of the kinetic constants for each component are given in the Results section.
(§2) Glutamine Transport Assays. Measurement of initial-rate glutamine uptake was carried out via the cluster-tray method originally described by Gazzola (21) as reported previously (6, 9). Briefly, after trypsinization hepatoma cells were plated at a density of 1×10^5 cells/well in 24-well culture plates (Costar Corp., Cambridge, Mass.) and allowed to grow to >80% confluence, typically one to two days later. For initial-rate measurements, the radiotracer utilized was L-[G-^3H] glutamine (Amersham Corp., Arlington Heights, Ill.) at 4 μCi/ml, in the presence of unlabeled L-glutamine at 50 μM. For kinetic studies, the amount of unlabeled glutamine in the transport buffer varied from 10 μM to 10 mM. All transport measurements were carried out at 37° C. and were terminated after 30 s by three rapid washes with an ice-cold phosphate-buffered saline solution. Intracellular radiolabeled glutamine was extracted with 0.2 ml/well of 0.2% sodium dodecyl sulfate (SDS) and 0.2 N NaOH; after 1 h, 0.1 ml of the lysate was neutralized with 10 μl of 2 N HCl and subjected to scintillation spectrophotometry in a Packard TopCount™ (Packard Instruments, Meriden, Conn.). The remaining lysate was utilized for the determination of cellular protein by the bicinchoninic acid (BCA) method (Pierce Chemical Co., Rockford, Ill.). Rates of glutamine transport were calculated from the cpm per sample, the specific activity of the uptake mix (in cpm/nmol) and normalized to cellular protein content in a Microsoft Excel® spreadsheet program. Transport values obtained in the absence of extracellular Na^+ (diffusion and Na^+-independent uptake) were subtracted from those in the presence of Na^+ (total uptake) to yield Na^+-dependent rates which are reported in units of nmol•mg^−1 protein•30 s^−1. All transport values depicted are the average±standard deviation of four separate determinations. Kinetic analysis of Eadie-Hofstee linearized transport data (v vs. v/[L-GLN]) was performed by regression analysis (Cricket Graph®, Computer Associates, Islandia, N.Y.). Nonlinear regression analysis was performed with DataDesk (Data Description, Inc. Ithaca, N.Y.) and Excel for two component Michaelis-Menten kinetics: v=((Vmax1×[S])/(Km1+[S])+(Vmax2×[S])/(Km2+[S])).
It should be noted that extensive depletion of intracellular amino acid pools were not performed prior to transport measurements in these studies because we sought to assess glutamine uptake under more physiological conditions. […]

[1] = test system: human fetal liver fibroblasts (HFLF); test: as above; assay type: cell-based; conditions: 5 mM, 50 μM L-glutamine
Procedure: FIG. 5. Functional and molecular assessment of ATB^0 expression in human fetal liver fibroblasts (HFLF) and cirrhotic liver tissue. A) Amino acid inhibition analysis of Na^+-dependent glutamine uptake in human fetal liver fibroblasts. Fibroblasts were isolated and cultured as described in the Methods section, and amino acid inhibition analysis of 50 μM L-glutamine uptake was carried out as described in FIG. 1. *p<0.010 vs. control. The Eadie-Hofstee plot of the kinetic analysis is shown as an inset, with the dashed lines representing the resolved high and low affinity components of the composite data (solid line). The derived values of the kinetic constants for each component are given in the Results section. B) Northern blot analysis of ATB^0 expression in HFLF. Radiolabeled cDNA probes were generated with the Megaprime™ kit as described in the Methods section, and hybridized to 20 μg of total RNA from HFLF. Exposure time was 24 h. C) RT-PCR and restriction enzyme analysis of ATB^0 expression in HFLF, normal and cirrhotic liver. The analysis was carried out exactly as described in FIG. 3. Omission of RT is shown for the normal liver sample. D) Expression of ATB^0 in biopsies from a patient with liver cirrhosis and hepatocellular carcinoma (HCC). Northern blot analysis of ATB^0 & SN1 expression were performed on RNA extracted from the snap-frozen biopsies. RNA isolation and northern blot analysis was carried out as described in the Methods section, with full-length riboprobes used for detection of transporter mRNA. Exposure times for the blots are shown to illustrate relative expression levels for ATB^0 in each of the samples.
as §2, with “v=((Vmax1×[S])/(Km1+[S])+(Vmax2×[S])/(Km2+[S])). […]” for “v=((Vmax1×[S])/(Km1+[S])+(Vmax2×[S])/(Km2+[S])).”

[2] = test system: Hep3B, PLC/PRF/5, Focus and THLE-5B cell lines; test: Amino acid inhibition analysis of Na+-dependent glutamine transport; assay type: cell-based, human; conditions: for inhibition at 5000 µM: Homo sapiens, unlabeled amino acid at 5 mM, 50 μM L-glutamine, Hep3B, PLC/PRF/5, Focus, THLE-5B, read-out: inhibition of glutamine uptake
Procedure: as §1
as §2, with “All transport values depicted are the average±standard deviation of four separate determinations. Kinetic analysis of Eadie-Hofstee linearized transport data (v vs. v/[L-GLN]) was performed by regression analysis (Cricket Graph®, Computer Associates, Islandia, N.Y.). Nonlinear regression analysis was performed with DataDesk (Data Description, Inc. Ithaca, N.Y.) and Excel for two component Michaelis-Menten kinetics: v=((Vmax1×[S])/(Km1+[S])+(Vmax2×[S])/(Km2+[S])).” left out

SK-Hep cells [3] = test: Cellular quantification (hemacytometer cell number, viability); assay type: cell-based, human; conditions: treatment with MFP
Procedure: FIG. 11. Effect of induced antisense RNA expression and glutamine deprivation on cellular proliferation and viability. Cultures of SK-Hep cells stably transfected with a 1.3 kb ATB^0 construct in the antisense orientation (Antisense 1-1) were treated at time zero with either inducer (FP, 10 nM), vehicle (ethanol, 0.1%) or maintained in the presence (+GLN) or absence (−GLN) of glutamine (DMEM+10% dialyzed FBS±2 mM L-GLN). At the indicated times thereafter, cell number was calculated after trypsmization and subsequent counting on a hemacytometer. The results represent the average±SD of five separate determinations. **p<0.010 versus-MFP. ††p<0.010 versus+GLN. […]
Cellular Quantification. Initial screens of the stably transfected sense and antisense ATB^0/ASCT2 clones to MFP induction utilized the colorimetric MTT (3-[4,5-Dimethylthiazol-2-yl]-2,5-diphenyltetrazolium bromide (Sigma)) assay as previously described (57), using a spectrophotometric plate reader at a wavelength of 562 nm (Bio-Tek EL311SX, Winooski, Vt.). The absorbance is considered to be directly proportional to the number of metabolically active mitochondria, and by extension, the number of cells. In subsequent studies, cell number was quantified directly. At specific times after experimental treatment (±MFP or ±glutamine), cells were removed from the culture dish via trypsinization and quantified on a hemacytometer. […]

SK-Hep cells [4] = test: Na+-dependent glutamine transport assay in SK-Hep cells and transfected clones; assay type: cell-based, human; conditions: SK-Hep parent cells
Procedure: FIG. 10. Effect of induced ATB0/ASCT2 antisense RNA expression on Na^+-dependent glutamine uptake. Cultures of the SK-Hep parent cell line and SK-Hep cells stably transfected with a 1.3 kb ATB^0 construct in the sense orientation (Sense 2-1) or antisense orientation (Antisense 1-1) were treated with inducer (MFP, 10 nM) or vehicle (ethanol, 0.1%) at time zero. At the indicated times thereafter, the initial rate (30 s) Na^+-dependent transport velocity of 50 μM L-glutamine was measured by radiotracer analysis as described in the methods section. The results represent the average±SD of four separate determinations. *p<0.050 versus control. **p<0.010 versus control.
Glutamine Transport Assays. Measurement of initial-rate Na^+-dependent glutamine uptake was performed by radiotracer analysis using the cluster tray method described in detail previously (57). Initial rate transport velocities are expressed as the average±SD of at least four separate determinations. The transport data was analyzed for significant differences using a t-test with a p<0.050 considered significant.
Inpact of antisense ATB^0/ASCT2 RNA on glutamine transport rates. In order to determine the functional effect of targeting ATB^0/ASCT2 mRNA, glutamine transport rates were measured.

SK-Hep cells [5] = test: Poly IC treatment of SK-Hep cells (growth, viability, apoptosis); assay type: cell-based, human
Procedure: Possible role of a PKR response in hepatoma apoptosis. Given the marked effect of induced ATB^0/ASCT2 antisense RNA expression on hepatoma viability and apoptosis, the possibility that the transporter knockdown response was a nonspecific double stranded RNA-dependent protein kinase (PKR) (62) mediated event was considered. To this end, cells were treated with Polyriboinosinic-polyribocytidylic acid (poly IC)—a mimic of double stranded RNA and stimulator of PKR in mammalian cells.
The mechanism leading from ATB^0/ASCT2 inhibition to apoptosis is unclear, but is currently being investigated. As we ruled out a nonspecific double stranded RNA (PKR) response (FIG. 14), we hypothesize that another cellular stress pathway links transporter suppression to apoptosis. Specifically, oxidative stress may be involved due to the likely loss of the antioxidant glutathione after diminution of its precursor glutamine (65, 66). PKR phosphorylates the α chain of the eukaryotic translation initiation factor eIF2 inhibiting the guanine nucleotide exchange factor eIF2B and turning off protein synthesis. In this respect, the selective expression of ATB^0/ASCT2 in cancerous versus normal human liver cells remains important since tumor-specific activation of PKR has recently been used to inhibit glioma growth in vivo [68]. […]

Compound	inhibition of Na+-dependent glutamine uptake [1]	inhibition at 5000 µM [2] [%]	other results
CNC(C)(C)C(=O)O [MeAIB, alpha-(methylamino)isobutyric acid, reference compound]	not		diminished glutamine uptake (THLE-5B): 29%; inhibition of glutamine uptake ([2]; 5 mM, all cell lines except THLE-5B): failed to significantly inhibit glutamine uptake
N[C@@H](CS)C(=O)O [cysteine, reference compound]	marked inhibition	> 80	
CC#C[C@]1(O)CC[C@H]2[C@@H]3CCC4=CC(=O)CCC4=C3[C@@H](c3ccc(N(C)C)cc3)C[C@@]21C [MFP, mifepristone]			growth of the SK-Hep parent cell line (SK-Hep cells [3]): unaffected; decrease in glutamine transport rates (SK-Hep cells [4]; 14 h MFP 10 nM, p<0.050, not reproduced in subsequent studies): 23%; decrease in glutamine transport rates (SK-Hep cells [4]; 24 h MFP): not observed
N[C@@H](CO)C(=O)O [serine, reference compound]	marked inhibition	> 80	
C[C@H](N)C(=O)O [alanine, reference compound]	marked inhibition	> 80	
Polyriboinosinic-polyribocytidylic acid [poly IC]			apoptotic response in SK-Hep cells (SK-Hep cells [5]): failed to elicit the apoptotic response; growth or viability of SK-Hep cells (SK-Hep cells [5]): failed to impact growth or viability
